Where “and” joins values, the source holds several entries; their conditions need not be identical. Equal entries are not always repeated.
Assays:
Test in all cases: biochemical
Type in all cases: biochemical
[1] = molecular target: T1, various kinases (Homo sapiens, UniProt Q02156); settings: kinase PRKCE (PKC epsilon); ZLYTE
T1 sequence (Q02156 1-737): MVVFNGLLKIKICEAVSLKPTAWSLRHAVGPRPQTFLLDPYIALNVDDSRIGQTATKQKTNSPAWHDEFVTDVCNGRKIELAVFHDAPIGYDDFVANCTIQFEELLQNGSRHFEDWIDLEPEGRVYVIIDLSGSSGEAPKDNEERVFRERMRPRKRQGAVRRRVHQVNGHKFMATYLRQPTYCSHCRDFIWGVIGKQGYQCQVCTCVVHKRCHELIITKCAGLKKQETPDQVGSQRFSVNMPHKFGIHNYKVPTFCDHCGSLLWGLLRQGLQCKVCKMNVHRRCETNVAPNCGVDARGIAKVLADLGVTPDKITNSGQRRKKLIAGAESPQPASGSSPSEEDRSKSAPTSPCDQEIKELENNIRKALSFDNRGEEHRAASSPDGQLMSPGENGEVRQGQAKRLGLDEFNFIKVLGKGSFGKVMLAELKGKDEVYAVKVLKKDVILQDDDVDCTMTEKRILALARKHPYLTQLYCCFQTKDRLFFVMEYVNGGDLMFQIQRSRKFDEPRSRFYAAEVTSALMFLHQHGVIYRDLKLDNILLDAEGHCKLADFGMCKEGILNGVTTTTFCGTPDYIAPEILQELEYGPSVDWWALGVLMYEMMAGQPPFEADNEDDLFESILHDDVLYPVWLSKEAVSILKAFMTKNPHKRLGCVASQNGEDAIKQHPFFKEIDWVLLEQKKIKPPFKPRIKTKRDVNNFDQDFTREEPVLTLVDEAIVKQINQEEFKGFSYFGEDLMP

[2] = molecular target: various kinases (Homo sapiens, UniProt Q16539)
Chain of various kinases (Homo sapiens, UniProt Q16539) (Q16539 whole entry): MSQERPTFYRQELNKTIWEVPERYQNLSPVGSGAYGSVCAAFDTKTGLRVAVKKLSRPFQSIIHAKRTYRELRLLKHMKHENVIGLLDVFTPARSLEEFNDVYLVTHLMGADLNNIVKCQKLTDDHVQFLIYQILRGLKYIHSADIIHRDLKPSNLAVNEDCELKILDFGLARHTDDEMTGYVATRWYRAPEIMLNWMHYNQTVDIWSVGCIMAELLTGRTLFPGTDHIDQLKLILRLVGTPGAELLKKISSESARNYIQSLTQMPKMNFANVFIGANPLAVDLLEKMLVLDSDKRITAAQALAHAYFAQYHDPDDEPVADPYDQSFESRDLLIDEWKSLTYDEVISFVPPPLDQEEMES

[3] = molecular target: various kinases (Homo sapiens, UniProt O43781); settings: DYRK3
Chain of various kinases (Homo sapiens, UniProt O43781) (O43781 whole entry): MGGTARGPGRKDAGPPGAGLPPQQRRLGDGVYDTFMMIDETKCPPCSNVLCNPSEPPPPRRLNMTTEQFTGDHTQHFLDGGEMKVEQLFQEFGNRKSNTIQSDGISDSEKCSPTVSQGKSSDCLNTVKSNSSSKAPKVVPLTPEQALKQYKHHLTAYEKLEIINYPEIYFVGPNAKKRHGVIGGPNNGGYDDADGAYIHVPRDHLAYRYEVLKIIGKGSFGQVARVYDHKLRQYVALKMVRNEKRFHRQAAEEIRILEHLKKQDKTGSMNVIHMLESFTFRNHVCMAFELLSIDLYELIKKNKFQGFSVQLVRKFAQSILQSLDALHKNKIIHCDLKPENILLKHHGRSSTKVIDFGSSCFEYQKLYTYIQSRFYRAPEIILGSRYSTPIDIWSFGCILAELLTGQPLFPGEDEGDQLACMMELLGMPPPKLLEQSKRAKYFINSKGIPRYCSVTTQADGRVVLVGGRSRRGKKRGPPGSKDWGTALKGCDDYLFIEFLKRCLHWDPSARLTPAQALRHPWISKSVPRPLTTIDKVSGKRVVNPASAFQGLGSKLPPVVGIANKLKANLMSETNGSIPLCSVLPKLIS

[4] = molecular target: various kinases (Homo sapiens, UniProt P27448); settings: MARK3
[5] = molecular target: various kinases (Homo sapiens, UniProt P16234); settings: PDGFRA (PDGFR alpha)
Chain of various kinases (Homo sapiens, UniProt P16234) (P16234 24-1089): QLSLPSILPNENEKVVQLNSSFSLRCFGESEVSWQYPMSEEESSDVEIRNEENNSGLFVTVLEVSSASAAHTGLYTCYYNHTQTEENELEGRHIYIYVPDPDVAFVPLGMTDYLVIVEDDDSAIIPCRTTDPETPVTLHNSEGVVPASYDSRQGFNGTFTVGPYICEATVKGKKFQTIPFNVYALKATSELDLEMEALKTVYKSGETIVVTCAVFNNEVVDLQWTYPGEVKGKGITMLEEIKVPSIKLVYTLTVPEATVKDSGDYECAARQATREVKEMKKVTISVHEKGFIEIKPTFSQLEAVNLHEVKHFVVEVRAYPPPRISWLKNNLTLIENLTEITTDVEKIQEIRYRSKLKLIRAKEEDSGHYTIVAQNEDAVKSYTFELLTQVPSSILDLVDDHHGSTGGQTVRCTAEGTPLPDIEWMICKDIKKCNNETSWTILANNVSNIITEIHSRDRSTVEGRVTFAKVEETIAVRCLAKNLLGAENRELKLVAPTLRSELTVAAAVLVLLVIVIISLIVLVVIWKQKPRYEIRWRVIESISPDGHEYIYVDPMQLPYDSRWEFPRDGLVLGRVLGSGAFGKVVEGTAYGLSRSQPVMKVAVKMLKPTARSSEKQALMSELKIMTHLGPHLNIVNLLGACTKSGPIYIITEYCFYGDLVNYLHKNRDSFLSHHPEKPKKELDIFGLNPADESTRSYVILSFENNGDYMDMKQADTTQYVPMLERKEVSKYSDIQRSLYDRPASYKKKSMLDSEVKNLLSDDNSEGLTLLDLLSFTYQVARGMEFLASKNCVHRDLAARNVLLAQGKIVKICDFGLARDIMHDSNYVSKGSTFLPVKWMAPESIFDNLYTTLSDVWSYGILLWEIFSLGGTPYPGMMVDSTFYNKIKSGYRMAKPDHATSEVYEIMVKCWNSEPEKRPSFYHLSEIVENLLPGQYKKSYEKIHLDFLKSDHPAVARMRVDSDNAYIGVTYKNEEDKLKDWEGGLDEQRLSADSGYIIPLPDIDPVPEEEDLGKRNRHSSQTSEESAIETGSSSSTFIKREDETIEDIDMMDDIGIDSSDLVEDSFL

[6] = molecular target: various kinases (Homo sapiens, UniProt P29376); settings: LTK (TYK1)
[7] = molecular target: various kinases (Homo sapiens, UniProt P21802, N549H); settings: FGFR2 N549H
Chain of various kinases (Homo sapiens, UniProt P21802, N549H) (P21802 22-821 N549H): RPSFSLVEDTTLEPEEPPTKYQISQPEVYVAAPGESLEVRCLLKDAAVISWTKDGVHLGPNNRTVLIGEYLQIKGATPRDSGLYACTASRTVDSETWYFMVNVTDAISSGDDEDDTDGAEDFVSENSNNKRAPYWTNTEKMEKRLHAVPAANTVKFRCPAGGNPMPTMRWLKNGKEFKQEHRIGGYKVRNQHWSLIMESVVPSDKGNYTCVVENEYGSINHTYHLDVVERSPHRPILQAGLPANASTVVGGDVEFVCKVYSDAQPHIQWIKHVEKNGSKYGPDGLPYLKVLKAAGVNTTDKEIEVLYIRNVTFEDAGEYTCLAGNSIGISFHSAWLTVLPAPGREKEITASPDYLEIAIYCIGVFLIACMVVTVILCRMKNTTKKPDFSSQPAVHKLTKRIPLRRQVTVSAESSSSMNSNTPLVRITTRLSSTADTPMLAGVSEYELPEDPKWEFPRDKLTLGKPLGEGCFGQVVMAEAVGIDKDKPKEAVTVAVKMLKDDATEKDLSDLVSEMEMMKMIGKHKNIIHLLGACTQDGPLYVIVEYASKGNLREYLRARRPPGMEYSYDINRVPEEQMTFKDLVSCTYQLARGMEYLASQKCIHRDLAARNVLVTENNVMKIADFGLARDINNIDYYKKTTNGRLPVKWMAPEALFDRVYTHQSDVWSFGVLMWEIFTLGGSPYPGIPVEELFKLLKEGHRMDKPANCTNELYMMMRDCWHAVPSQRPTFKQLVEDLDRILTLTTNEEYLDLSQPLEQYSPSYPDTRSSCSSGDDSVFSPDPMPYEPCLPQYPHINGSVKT

[8] = molecular target: various kinases (Homo sapiens, UniProt P54760); settings: EPHB4
[9] = molecular target: various kinases (Homo sapiens, UniProt P49761); settings: CLK3
Chain of various kinases (Homo sapiens, UniProt P49761) (P49761 whole entry): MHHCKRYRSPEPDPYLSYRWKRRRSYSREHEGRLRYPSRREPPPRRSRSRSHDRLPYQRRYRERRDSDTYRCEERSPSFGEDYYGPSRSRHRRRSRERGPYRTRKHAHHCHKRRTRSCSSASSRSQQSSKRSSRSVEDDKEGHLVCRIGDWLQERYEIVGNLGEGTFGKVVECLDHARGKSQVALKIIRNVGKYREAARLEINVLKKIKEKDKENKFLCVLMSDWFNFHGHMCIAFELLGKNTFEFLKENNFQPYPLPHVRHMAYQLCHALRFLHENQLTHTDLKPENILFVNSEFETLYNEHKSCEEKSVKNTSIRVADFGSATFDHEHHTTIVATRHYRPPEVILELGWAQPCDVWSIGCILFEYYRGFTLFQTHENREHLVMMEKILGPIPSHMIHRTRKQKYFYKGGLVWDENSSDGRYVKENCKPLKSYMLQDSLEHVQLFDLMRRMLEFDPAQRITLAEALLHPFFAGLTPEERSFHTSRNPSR

[10] = molecular target: various kinases (Homo sapiens, UniProt P78527); settings: DNA-PK
[11] = molecular target: various kinases (Homo sapiens, UniProt P29597); settings: kinase TYK2; ZLYTE
Chain of various kinases (Homo sapiens, UniProt P29597) (P29597 whole entry): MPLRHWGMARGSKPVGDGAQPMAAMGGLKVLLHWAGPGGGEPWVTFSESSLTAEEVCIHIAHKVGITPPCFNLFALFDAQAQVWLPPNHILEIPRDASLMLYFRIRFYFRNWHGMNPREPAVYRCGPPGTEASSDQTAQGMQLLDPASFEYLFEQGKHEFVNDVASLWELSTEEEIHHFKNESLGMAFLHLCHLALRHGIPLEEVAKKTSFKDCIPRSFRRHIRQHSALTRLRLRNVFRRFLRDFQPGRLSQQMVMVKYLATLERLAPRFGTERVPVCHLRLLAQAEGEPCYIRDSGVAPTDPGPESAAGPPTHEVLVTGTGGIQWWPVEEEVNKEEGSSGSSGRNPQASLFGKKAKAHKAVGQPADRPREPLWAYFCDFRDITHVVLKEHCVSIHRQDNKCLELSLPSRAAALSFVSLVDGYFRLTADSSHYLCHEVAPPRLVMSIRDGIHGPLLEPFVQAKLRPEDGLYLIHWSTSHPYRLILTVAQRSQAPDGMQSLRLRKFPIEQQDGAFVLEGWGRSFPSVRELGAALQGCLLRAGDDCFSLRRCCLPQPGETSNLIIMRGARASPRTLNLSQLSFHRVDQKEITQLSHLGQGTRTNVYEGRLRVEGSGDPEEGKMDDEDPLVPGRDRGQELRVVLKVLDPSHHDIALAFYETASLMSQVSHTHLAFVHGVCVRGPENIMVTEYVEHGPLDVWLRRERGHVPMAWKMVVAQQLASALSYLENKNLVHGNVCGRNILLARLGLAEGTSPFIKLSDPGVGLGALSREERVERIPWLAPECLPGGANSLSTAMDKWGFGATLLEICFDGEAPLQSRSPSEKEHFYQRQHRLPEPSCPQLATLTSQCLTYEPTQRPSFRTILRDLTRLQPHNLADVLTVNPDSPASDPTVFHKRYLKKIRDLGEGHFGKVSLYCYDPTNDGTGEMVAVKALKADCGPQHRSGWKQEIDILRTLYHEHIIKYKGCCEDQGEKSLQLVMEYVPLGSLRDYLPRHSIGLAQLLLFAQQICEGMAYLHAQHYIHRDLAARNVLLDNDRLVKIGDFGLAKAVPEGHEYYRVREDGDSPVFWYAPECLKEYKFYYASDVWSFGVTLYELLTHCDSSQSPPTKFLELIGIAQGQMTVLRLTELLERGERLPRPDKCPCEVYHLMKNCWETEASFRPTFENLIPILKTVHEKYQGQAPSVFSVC

[12] = molecular target: various kinases (Homo sapiens, UniProt P42685); settings: FRK (PTK5)
Chain of various kinases (Homo sapiens, UniProt P42685) (P42685 whole entry): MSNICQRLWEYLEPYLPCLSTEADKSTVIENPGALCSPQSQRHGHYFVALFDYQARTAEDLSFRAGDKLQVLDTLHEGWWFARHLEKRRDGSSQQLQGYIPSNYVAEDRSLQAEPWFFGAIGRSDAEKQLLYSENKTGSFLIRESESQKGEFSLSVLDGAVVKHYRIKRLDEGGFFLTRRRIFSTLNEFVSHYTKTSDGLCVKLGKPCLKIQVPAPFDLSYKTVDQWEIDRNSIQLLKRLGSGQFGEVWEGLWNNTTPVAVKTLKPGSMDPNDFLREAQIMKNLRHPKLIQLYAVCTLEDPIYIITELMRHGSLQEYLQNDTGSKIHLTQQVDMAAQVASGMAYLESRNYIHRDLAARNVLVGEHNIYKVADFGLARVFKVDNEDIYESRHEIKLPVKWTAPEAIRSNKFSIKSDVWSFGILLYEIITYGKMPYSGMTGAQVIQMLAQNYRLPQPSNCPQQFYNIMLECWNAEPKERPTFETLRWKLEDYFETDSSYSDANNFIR

[13] = molecular target: T2, various kinases (Homo sapiens, UniProt Q13188); settings: kinase STK3 (MST2); ZLYTE
T2 sequence (Q13188 1-491): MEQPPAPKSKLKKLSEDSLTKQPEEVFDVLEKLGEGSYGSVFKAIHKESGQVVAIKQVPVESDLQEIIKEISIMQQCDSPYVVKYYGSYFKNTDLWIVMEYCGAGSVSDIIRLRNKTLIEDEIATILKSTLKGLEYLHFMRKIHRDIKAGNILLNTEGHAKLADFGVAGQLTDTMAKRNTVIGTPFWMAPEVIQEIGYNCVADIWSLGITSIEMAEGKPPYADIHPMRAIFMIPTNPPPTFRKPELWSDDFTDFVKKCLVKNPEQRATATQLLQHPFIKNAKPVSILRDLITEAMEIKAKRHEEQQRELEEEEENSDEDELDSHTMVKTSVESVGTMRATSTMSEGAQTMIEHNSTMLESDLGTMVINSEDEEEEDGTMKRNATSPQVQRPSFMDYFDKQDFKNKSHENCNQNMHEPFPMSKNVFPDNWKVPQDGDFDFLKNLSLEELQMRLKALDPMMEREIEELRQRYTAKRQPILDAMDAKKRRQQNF

[14] = molecular target: various kinases (Homo sapiens, UniProt P49137); settings: MAPKAPK2
[15] = molecular target: T3, various kinases (Homo sapiens, UniProt Q96BR1); settings: kinase SGKL (SGK3); ZLYTE
T3 sequence (Q96BR1 1-496): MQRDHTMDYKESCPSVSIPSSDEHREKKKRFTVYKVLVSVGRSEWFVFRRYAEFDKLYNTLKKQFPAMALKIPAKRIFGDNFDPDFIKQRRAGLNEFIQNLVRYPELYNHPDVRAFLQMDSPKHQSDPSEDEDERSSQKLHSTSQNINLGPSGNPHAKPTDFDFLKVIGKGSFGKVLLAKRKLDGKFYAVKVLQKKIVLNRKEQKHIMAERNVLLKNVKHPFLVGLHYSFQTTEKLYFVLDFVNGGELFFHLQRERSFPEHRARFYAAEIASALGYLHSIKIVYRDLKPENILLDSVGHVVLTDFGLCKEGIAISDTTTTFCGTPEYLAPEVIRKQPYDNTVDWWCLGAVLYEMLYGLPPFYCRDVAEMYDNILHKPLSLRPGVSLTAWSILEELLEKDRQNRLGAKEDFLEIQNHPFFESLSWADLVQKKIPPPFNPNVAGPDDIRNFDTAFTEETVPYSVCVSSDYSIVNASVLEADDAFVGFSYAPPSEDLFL
Wherever % Inhibition Average is given: test concentration or dose not given here.
Wherever % Inhibition Duplicate #1 is given: test concentration or dose not given here.
Wherever % Inhibition Duplicate #2 is given: test concentration or dose not given here.

COc1ccc2c(c1)[C@]1(C[C@H]1c1ccc3c(/C=C/c4ccc(CN5C[C@@H](C)O[C@@H](C)C5)cc4)n[nH]c3c1)C(=O)N2 [CFI-400945]
% Inhibition Average [1]: -2%
% Inhibition Duplicate #1 [1]: -5%
% Inhibition Duplicate #2 [1]: 1%
% Inhibition ([2]; MAPK14 (p38 alpha)): 8% and 0%
% Inhibition ([2]; MAPK14 (p38 alpha) Direct): 11%
% Inhibition [3]: 9% and 5%
% Inhibition [4]: 9% and 19%
% Inhibition [5]: 3% and 2%
% Inhibition [6]: 68%
% Inhibition [7]: 12% and 18%
% Inhibition [8]: 5% and 8%
% Inhibition [9]: 2% and 0%
% Inhibition [10]: 3% and 1%
% Inhibition Average [11]: 2%
% Inhibition Duplicate #1 [11]: 2%
% Inhibition Duplicate #2 [11]: 2%
% Inhibition [12]: 8% and 7%
% Inhibition Average [13]: 13%
% Inhibition Duplicate #1 [13]: 15%
% Inhibition Duplicate #2 [13]: 12%
% Inhibition [14]: 15% and 12%
% Inhibition Average [15]: 3%
% Inhibition Duplicate #1 [15]: 4%
% Inhibition Duplicate #2 [15]: 2%

— publication PMC5762315, “Inhibition of polo-like kinase 4 (PLK4): a new therapeutic option for rhabdoid tumors and pediatric medulloblastoma” (Oncotarget, 2017)
